# Measured values: PMC9921301, “Design, Synthesis, and Antiproliferative Activity of New 5-Chloro-indole-2-carboxylate and Pyrrolo[3,4-b]indol-3-one Derivatives as Potent Inhibitors of EGFR^T790M/BRAF^V600E Pathways” (Molecules, 2023)
# Like-named read-outs stand apart in the source and are kept apart here.
# Legend:
# [1] = target: T1, BRAF^V600E (Mus musculus, UniProt P28028, V585E); test: V600E mutant BRAF kinase assay; assay type: biochemical; details: for IC50: read-out: BRAF^V600E Inhibition IC50 ± SEM
# T1 construct: Mouse full-length GST-tagged; GST; purchased Invitrogen PV3849
# Experimental: V600E mutant BRAF kinase assay was performed to investigate the activity of […]
# Mouse full-length GST-tagged
# BRAFV600E (7.5 ng, Invitrogen, PV3849) was pre -incubated with drug (1 µL) and assay dilution buffer (4 µL) for 6 0 min at 25 °C. In assay dilution buffer, a solution (5 µL) containing MgCl2 (30 mM), ATP (200 µM), recombinant human full length (200 ng) […] N-terminal His-tagged MEK1 (Invitrogen) was added to start the assay, after incubation for 25 min at 25 °C. The assay was stopped using 5X protein denaturing buffer (LDS) solution (5 µL). To further denature the protein, heat (70° C) was applied […]
# electrophoresis (at 200 V). 10 µL of each reaction was loaded into the precast plates and electrophoresis was allowed to proceed. After completion of electrophoresis, the front part of the precast gel plate (holding hot ATP) was cut and afterwards cast -off.
# The dried gel was developed using a phosphor screen. […]
# Computerized Prism 5 program was used to statistically analyzed data using one-way ANOVA test followed by Tukey’s as post ANOVA for multiple comparison at P ≤.05.
# Data were presented as mean ± SEM.
# [2] = Cell viability assay (MTT) on normal mammary epithelial cells; assay type: cell-based; details: human, MCF-10A normal mammary gland epithelial cells, four days of incubation
# Experimental: The viability test was performed on a normal human mammary gland epithelial cell line (MCF-10A). The MTT test was used to assess the viability of compounds 3a–e, 4a–c, and 5a–c.
# The MTT assay was used to determine how the synthesized compounds affected the viability of mammary epithelial cells (MCF-10A). See Appendix SA (Supplementary Materials). […]
# 4.2. Biological evaluation
# 4.2.1. Cytotoxic activity using MTT Assay and evaluation of IC50
# MTT assay was performed to investigate the effect of the synthesized compounds on mammary epithelial cells (MCF-10A). The cells were propagated in medium consisting of Ham's F-12 medium/ Dulbecco's modified Eagle's medium (DMEM) (1:1) supplemented with 10% foetal calf serum, 2 mM glutamine, insulin (10 μg/mL), hydrocortisone (500 ng/mL) and epidermal growth factor (20 ng/mL). Trypsin ethylenediamine tetra acetic acid (EDTA) was used to passage the cells after every 2-3 days. 96-well flat-bottomed cell culture plates were used to seed the cells at a density of 10^4 cells mL-1. The medium was aspirated from all the wells of culture plates after 24 h followed by the addition of synthesized compounds (in 200 μL medium to yield a final concentration of 0.1% (v/v) dimethylsulfoxide) into individual wells of the plates.
# Four wells were designated to a single compound. The plates were allowed to incubate at 37°C for 96 h. Afterwards, the medium was aspirated and 3-[4,5-dimethylthiazol-2-yl]-2,5-diphenyltetrazolium bromide (MTT) (0.4 mg/mL) in medium was added to each well and subsequently incubated for 3 h. The medium was aspirated and 150 μL dimethyl sulfoxide (DMSO) was added to each well. The plates were vortexed followed by the measurement of absorbance at 540 nm on a microplate reader. […]
# [3] = test system: four human cancer cell lines (Panc-1, MCF-7, HT-29, A-549); test: Antiproliferative assay, average (GI50) versus the four cancer cell lines; assay type: cell-based; details: for GI50: Homo sapiens, average versus the four cancer cell lines; for fold less potent than 3e (GI50): relative to 3e GI50 29 nM
# Experimental: (§1) For ease of manipulation, the average (GI50) versus the four cancer cell lines was used.
# (§2) To investigate the antiproliferative potential of 3a–e, 4a–c, and 5a–c, the MTT assay was carried out using various cell lines in accordance with previously reported procedures. See Appendix SA (Supplementary Materials). […]
# (§3) ethylenediamine tetra acetic acid (EDTA) was used to passage the cells after every 2-3 days. 96-well flat-bottomed cell culture plates were used to seed the cells at a density of 10^4 cells mL-1. The medium was aspirated from all the wells of culture plates after 24 h followed by the addition of synthesized compounds (in 200 μL medium to yield a final concentration of 0.1% (v/v) dimethylsulfoxide) into individual wells of the plates.
# (§4) Four wells were designated to a single compound. The plates were allowed to incubate at 37°C for 96 h. Afterwards, the medium was aspirated and 3-[4,5-dimethylthiazol-2-yl]-2,5-diphenyltetrazolium bromide (MTT) (0.4 mg/mL) in medium was added to each well and subsequently incubated for 3 h. The medium was aspirated and 150 μL dimethyl sulfoxide (DMSO) was added to each well. The plates were vortexed followed by the measurement of absorbance at 540 nm on a microplate reader. The results were presented as inhibition (%) of proliferation in contrast to controls comprising 0.1% 4.2.1.2. Assay for antiproliferative effect
# (§5) To explore the antiproliferative potential of compounds propidium iodide fluorescence assay was performed using different cell lines such as Panc-1 (pancreas cancer cell […]
# (§6) (epithelial cancer cell line), respectively. To calculate the total nuclear DNA, a fluorescent dye (propidium iodide, PI) is used which can attach to the DNA, thus offering a quick and precise technique. PI cannot pass through the cell membrane and its signal intensity can be considered as directly proportional to quantity of cellular
# (§7) DNA. Cells whose cell membranes are damaged or have changed permeability are counted as dead ones. The assay was performed by seeding the cells of different cell lines at a density of 3000-7500 cells/well (in200μl medium) in culture plates followed […]
# (§8) The medium was removed; the compounds were added to the plates at 10 μM concentrations (in 0.1% DMSO) in triplicates, followed by incubation for 48h. DMSO (0.1%) was used as control. After incubation, medium was removed followed by the addition of PI (25 μl, 50μg/mL in water/medium) to each well of the plates. At -80 °C, the plates were allowed to freeze for 24 h, followed by thawing at 25 °C. A fluorometer (Polar-Star BMG Tech) was used to record the readings at excitation and emission wavelengths of 530 and 620 nm for each well. The percentage cytotoxicity of compounds was calculated using the following formula:
# (§9) Where ATC= Absorbance of treated cells and AC= Absorbance of control. […]
# (§10) was used as positive control in the assay. […]
# [4] = test system: Panc-1 (pancreatic cancer cell line); test: Antiproliferative assay, Panc-1; assay type: cell-based; details: Homo sapiens, read-out: Antiproliferative Activity IC50 ± SEM Panc-1
# Experimental: as §1, §2, §3, §4, §5, §6, §7, §8, §9, §10
# [5] = test system: A-549 (epithelial cancer cell line); test: Antiproliferative assay, A-549; assay type: cell-based; details: Homo sapiens, A549; read-out: Antiproliferative Activity IC50 ± SEM A-549
# Experimental: as §1, §2, §3, §4, §5, §6, §7, §8, §9, §10
# [6] = test system: HT-29 (colon cancer cell line); test: Antiproliferative assay, HT-29; assay type: cell-based; details: Homo sapiens, read-out: Antiproliferative Activity IC50 ± SEM HT-29
# Experimental: as §1, §2, §3, §4, §5, §6, §7, §8, §9, §10
# [7] = test system: MCF-7 (breast cancer cell line); test: Antiproliferative assay, MCF-7; assay type: cell-based; details: Homo sapiens, MCF7; read-out: Antiproliferative Activity IC50 ± SEM MCF-7
# Experimental: as §1, §2, §3, §4, §5, §6, §7, §8, §9, §10
# [8] = target: T2, EGFR (Homo sapiens, UniProt P00533); test: EGFR-TK inhibitory assay
# [9] = target: T2, EGFR; set-up: CD, amino acids 645–1186); His6 (N); made in house; host or cells: Sf-9 insect cells (baculovirus; pBlueBacHis2B / pFASTBacHTc; details: cited from earlier work
# [10] = test system: BRAF^V600E; details: cited from earlier work
# T2 sequence (P00533 669-1210): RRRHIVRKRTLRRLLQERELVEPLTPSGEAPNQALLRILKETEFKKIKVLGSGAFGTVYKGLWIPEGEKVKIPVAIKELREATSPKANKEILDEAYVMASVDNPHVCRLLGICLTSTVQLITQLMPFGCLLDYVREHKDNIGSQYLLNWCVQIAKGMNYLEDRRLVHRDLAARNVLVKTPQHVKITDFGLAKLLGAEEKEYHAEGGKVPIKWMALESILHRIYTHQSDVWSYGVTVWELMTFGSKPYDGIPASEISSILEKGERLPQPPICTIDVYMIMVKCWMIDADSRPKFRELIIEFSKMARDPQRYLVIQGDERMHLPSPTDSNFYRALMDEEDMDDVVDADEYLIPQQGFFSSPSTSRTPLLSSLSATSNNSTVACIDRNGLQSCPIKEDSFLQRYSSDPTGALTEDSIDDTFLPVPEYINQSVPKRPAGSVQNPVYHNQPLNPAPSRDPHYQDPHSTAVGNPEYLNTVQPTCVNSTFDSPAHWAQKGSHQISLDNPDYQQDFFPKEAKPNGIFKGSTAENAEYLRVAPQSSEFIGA
# T1 sequence (P28028 whole entry V585E): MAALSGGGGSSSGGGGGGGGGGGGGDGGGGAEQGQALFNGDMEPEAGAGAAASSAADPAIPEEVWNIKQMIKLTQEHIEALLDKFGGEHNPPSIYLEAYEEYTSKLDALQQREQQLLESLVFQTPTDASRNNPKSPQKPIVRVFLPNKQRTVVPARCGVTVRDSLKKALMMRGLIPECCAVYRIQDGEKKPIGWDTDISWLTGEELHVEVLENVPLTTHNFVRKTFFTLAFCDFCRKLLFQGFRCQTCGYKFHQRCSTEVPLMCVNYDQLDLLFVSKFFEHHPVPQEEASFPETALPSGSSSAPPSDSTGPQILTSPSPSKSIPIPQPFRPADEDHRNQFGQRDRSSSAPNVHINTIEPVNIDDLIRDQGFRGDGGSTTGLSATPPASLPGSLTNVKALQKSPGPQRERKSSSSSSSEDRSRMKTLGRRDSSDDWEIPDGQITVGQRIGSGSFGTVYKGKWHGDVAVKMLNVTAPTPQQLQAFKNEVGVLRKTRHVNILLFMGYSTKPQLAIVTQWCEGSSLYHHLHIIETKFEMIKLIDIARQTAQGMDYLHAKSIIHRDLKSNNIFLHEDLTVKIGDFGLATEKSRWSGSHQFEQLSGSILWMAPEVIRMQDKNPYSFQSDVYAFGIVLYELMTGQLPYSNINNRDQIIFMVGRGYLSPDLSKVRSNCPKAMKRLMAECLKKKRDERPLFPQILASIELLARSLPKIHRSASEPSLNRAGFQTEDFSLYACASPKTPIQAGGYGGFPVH
IC50 [1],GI50 [3],fold less potent than 3e (GI50) [3],IC50 [4],IC50 [5],IC50 [6],IC50 [7],IC50 [8],fold less potent than vemurafenib (BRAF^V600E IC50) ([1]; relative to vemurafenib IC50 = 30 nM),SMILES,"viability at 96 h, 50 µM [2]",IC50 [9],IC50 [10]
54 ± 5 nM,38 nM,1.3 fold,38 ± 3 nM,37 ± 3 nM,38 ± 3 nM,40 ± 4 nM,82 ± 7 nM,,"CCOC(=O)c1[nH]c2ccc(Cl)cc2c1CNCCc1ccc(N2CCCC2C)cc1 (stereo not shown) [Compound 3d, Ethyl 5-chloro-3-((4-(2-methylpyrrolidin-1-yl)phenethylamino)methyl)-1H-indole-2-carboxylate]",90%,,
,,,,,,,,,O=C(NCCc1ccc(N2CCOCC2)cc1)c1[nH]c2ccc(Cl)cc2c1CO [Compound IVc],,120 nM,
,78 nM,,78 ± 7 nM,75 ± 7 nM,78 ± 7 nM,79 ± 7 nM,,,"O=C(O)c1[nH]c2ccc(Cl)cc2c1CNCCc1ccccc1 [Compound 4a, 5-Chloro-3-((phenethylamino)methyl)-1H-indole-2-carboxylic acid]",91%,,
,,,,,,,,,CCOCc1c2n(c3ccc(Cl)cc13)C(=O)CN(CCc1ccc(N3CCOCC3)cc1)C2=O [VII],,32 nM,45 nM
,54 nM,,55 ± 5 nM,51 ± 5 nM,57 ± 5 nM,53 ± 5 nM,,,"O=C1c2[nH]c3ccc(Cl)cc3c2CN1CCc1ccc(N2CCCCC2)cc1 [Compound 5c, 7-Chloro-2-(4-(piperidin-1-yl)phenethyl)-1,2-dihydropyrrolo [3,4-b]indol-3(4H)-one]",91%,,
,,,,,,,,,Cc1c2cc(Cl)ccc2n2cc(Cc3ccccc3)[nH]c(=O)c12 [Compound V],,,100 nM
,72 nM,,72 ± 7 nM,69 ± 7 nM,75 ± 7 nM,73 ± 7 nM,,,"O=C(O)c1[nH]c2ccc(Cl)cc2c1CNCCc1ccc(N2CCCCC2)cc1 [Compound 4c, 5-Chloro-3-((4-(piperidin-1-yl)phenethylamino)methyl)-1H-indole-2-carboxylic acid]",87%,,
43 ± 4 nM,35 nM,,36 ± 3 nM,33 ± 3 nM,36 ± 3 nM,35 ± 3 nM,85 ± 6 nM,1.4 fold,"CCOC(=O)c1[nH]c2ccc(Cl)cc2c1CNCCc1ccccc1 [Compound 3a, Ethyl 5-chloro-3-((phenethylamino)methyl)-1H-indole-2-carboxylate]",87%,,
67 ± 6 nM,42 nM,1.5 fold,42 ± 4 nM,41 ± 4 nM,44 ± 4 nM,45 ± 4 nM,89 ± 6 nM,,"CCOC(=O)c1[nH]c2ccc(Cl)cc2c1CNCCc1ccc(N2CCCCC2)cc1 [Compound 3c, Ethyl 5-chloro-3-((4-(piperidin-1-yl)phenethylamino)methyl)-1H-indole-2-carboxylate]",89%,,
,68 nM,,68 ± 6 nM,65 ± 6 nM,68 ± 6 nM,69 ± 6 nM,,,"O=C(O)c1[nH]c2ccc(Cl)cc2c1CNCCc1ccc(N2CCCC2)cc1 [Compound 4b, 5-Chloro-3-((4-(pyrrolidin-1-yl)phenethylamino)methyl)-1H-indole-2-carboxylic acid]",89%,,
,48 nM,,50 ± 5 nM,46 ± 4 nM,49 ± 5 nM,48 ± 5 nM,,,"O=C1c2[nH]c3ccc(Cl)cc3c2CN1CCc1ccccc1 [Compound 5a, 7-Chloro-2-phenethyl-1,2-dihydropyrrolo [3,4-b]indol-3(4H)-one]",89%,,
,62 nM,,64 ± 6 nM,58 ± 5 nM,66 ± 6 nM,61 ± 6 nM,,,"O=C1c2[nH]c3ccc(Cl)cc3c2CN1CCc1ccc(N2CCCC2)cc1 [Compound 5b, 7-Chloro-2-(4-(pyrrolidin-1-yl)phenethyl)-1,2-dihydropyrrolo [3,4-b]indol-3(4H)-one]",89%,,
